Experimental data reported in the NIST ThermoML archive (doi:10.1021/je100967k).

Key:
[1] = xn = mol fraction of the nth substance listed; details: 101 kPa, Liquid; for speed of sound: Pulse-echo method
[2] = refractive index (Na D-line) (dimensionless); xn = mol fraction of the nth substance listed; details: 101 kPa, Liquid, Standard Abbe refractometry

CN1CCCC1=O [N-methylpyrrolidone] + O
Details | mass density, [1] [kg/m3] | refractive index, [2] | speed of sound, [1] [m/s] | viscosity, [1] [mPa·s]
293.15 K, x1 = 0.1 | 1030.11 | 1.3907 | 1713.9 | 3.332
293.15 K, x1 = 0.2 | 1047.15 | 1.4221 | 1766.5 | 5.903
293.15 K, x1 = 0.3001 | 1052.4 | 1.4402 | 1751.6 | 6.774
293.15 K, x1 = 0.3994 | 1051.69 | 1.4507 | 1718.4 | 5.724
293.15 K, x1 = 0.4997 | 1048.9 | 1.4573 | 1683.7 | 4.469
293.15 K, x1 = 0.6001 | 1045.08 | 1.4618 | 1651.6 | 3.566
293.15 K, x1 = 0.6997 | 1041.48 | 1.4648 | 1623.8 | 2.865
293.15 K, x1 = 0.7982 | 1038.44 | 1.4673 | 1601.2 | 2.394
293.15 K, x1 = 0.899 | 1035.42 | 1.469 | 1581 | 2.041
293.15 K, x1 = 1 | 1032.87 | 1.4706 | 1565.3 | 1.858
303.15 K, x1 = 0.1 | 1023.58 | 1.3882 | 1694.6 | 2.372
303.15 K, x1 = 0.2 | 1038.47 | 1.4187 | 1732 | 3.958
303.15 K, x1 = 0.3001 | 1043.03 | 1.4363 | 1713 | 4.365
303.15 K, x1 = 0.3994 | 1042.22 | 1.4467 | 1679.1 | 3.959
303.15 K, x1 = 0.4997 | 1039.51 | 1.4533 | 1644.5 | 3.318
303.15 K, x1 = 0.6001 | 1035.8 | 1.4576 | 1612.7 | 2.71
303.15 K, x1 = 0.6997 | 1032.32 | 1.4608 | 1585.3 | 2.279
303.15 K, x1 = 0.7982 | 1029.36 | 1.4628 | 1562.6 | 1.969
303.15 K, x1 = 0.899 | 1026.41 | 1.4649 | 1542.6 | 1.705
303.15 K, x1 = 1 | 1023.95 | 1.4664 | 1526.5 | 1.553
313.15 K, x1 = 0.1 | 1016.67 | 1.3863 | 1674 | 1.75
313.15 K, x1 = 0.2 | 1029.62 | 1.4165 | 1697 | 2.749
313.15 K, x1 = 0.3001 | 1033.55 | 1.4331 | 1674.3 | 3.01
313.15 K, x1 = 0.3994 | 1032.64 | 1.4425 | 1639.3 | 2.89
313.15 K, x1 = 0.4997 | 1030.02 | 1.4492 | 1604.6 | 2.51
313.15 K, x1 = 0.6001 | 1026.44 | 1.4534 | 1573.2 | 2.153
313.15 K, x1 = 0.6997 | 1023.08 | 1.4565 | 1546.8 | 1.834
313.15 K, x1 = 0.7982 | 1020.23 | 1.4584 | 1523.9 | 1.641
313.15 K, x1 = 0.899 | 1017.37 | 1.4604 | 1504.1 | 1.46
313.15 K, x1 = 1 | 1015.03 | 1.4621 | 1487.8 | 1.324
323.15 K, x1 = 0.1 | 1009.4 | 1.384 | 1651.4 | 1.348
323.15 K, x1 = 0.2 | 1020.59 | 1.4114 | 1661.6 | 2.065
323.15 K, x1 = 0.3001 | 1023.92 | 1.4283 | 1634.9 | 2.215
323.15 K, x1 = 0.3994 | 1022.94 | 1.4387 | 1599.4 | 2.161
323.15 K, x1 = 0.4997 | 1020.43 | 1.445 | 1565.5 | 1.959
323.15 K, x1 = 0.6001 | 1016.99 | 1.4495 | 1534.1 | 1.706
323.15 K, x1 = 0.6997 | 1013.78 | 1.4524 | 1507.6 | 1.485
323.15 K, x1 = 0.7982 | 1011.06 | 1.4546 | 1485.4 | 1.361
323.15 K, x1 = 0.899 | 1008.3 | 1.4564 | 1466 | 1.242
323.15 K, x1 = 1 | 1006.1 | 1.4576 | 1450.2 | 1.146

CN1CCCC1=O [N-methylpyrrolidone] + CCO
Details | mass density, [1] [kg/m3] | refractive index, [2] | speed of sound, [1] [m/s] | viscosity, [1] [mPa·s]
293.15 K, x1 = 0.0992 | 829.76 | 1.3797 | 1226.1 | 1.139
293.15 K, x1 = 0.1985 | 864.84 | 1.3953 | 1284.2 | 1.173
293.15 K, x1 = 0.2973 | 894.36 | 1.4089 | 1331.7 | 1.218
293.15 K, x1 = 0.3963 | 920.89 | 1.4209 | 1375.7 | 1.275
293.15 K, x1 = 0.4948 | 944.41 | 1.4313 | 1414.8 | 1.354
293.15 K, x1 = 0.5932 | 965 | 1.4406 | 1448.9 | 1.436
293.15 K, x1 = 0.6912 | 983.96 | 1.449 | 1480.7 | 1.524
293.15 K, x1 = 0.7897 | 1000.86 | 1.4563 | 1509.4 | 1.626
293.15 K, x1 = 0.8875 | 1016.79 | 1.4633 | 1537 | 1.726
293.15 K, x1 = 1 | 1032.87 | 1.4706 | 1565.3 | 1.858
303.15 K, x1 = 0.0992 | 820.98 | 1.376 | 1191.3 | 0.9625
303.15 K, x1 = 0.1985 | 855.96 | 1.3916 | 1248.9 | 0.986
303.15 K, x1 = 0.2973 | 885.42 | 1.4051 | 1295.9 | 1.033
303.15 K, x1 = 0.3963 | 911.91 | 1.4168 | 1338.9 | 1.09
303.15 K, x1 = 0.4948 | 935.43 | 1.4273 | 1377.6 | 1.15
303.15 K, x1 = 0.5932 | 955.97 | 1.4366 | 1411.4 | 1.22
303.15 K, x1 = 0.6912 | 974.94 | 1.4449 | 1442.9 | 1.292
303.15 K, x1 = 0.7897 | 991.85 | 1.4523 | 1471.4 | 1.371
303.15 K, x1 = 0.8875 | 1007.8 | 1.4593 | 1498.5 | 1.45
303.15 K, x1 = 1 | 1023.95 | 1.4664 | 1526.5 | 1.553
313.15 K, x1 = 0.0992 | 812.09 | 1.3717 | 1157 | 0.803
313.15 K, x1 = 0.1985 | 846.98 | 1.3872 | 1214.7 | 0.8276
313.15 K, x1 = 0.2973 | 876.39 | 1.4011 | 1260.3 | 0.867
313.15 K, x1 = 0.3963 | 902.87 | 1.4127 | 1302.5 | 0.9234
313.15 K, x1 = 0.4948 | 926.39 | 1.4234 | 1341 | 0.98
313.15 K, x1 = 0.5932 | 946.9 | 1.4329 | 1374.2 | 1.039
313.15 K, x1 = 0.6912 | 965.89 | 1.4411 | 1405.3 | 1.109
313.15 K, x1 = 0.7897 | 982.82 | 1.4484 | 1433.5 | 1.173
313.15 K, x1 = 0.8875 | 998.8 | 1.4552 | 1460.3 | 1.237
313.15 K, x1 = 1 | 1015.03 | 1.4621 | 1487.8 | 1.324
323.15 K, x1 = 0.0992 | 803.05 | 1.3677 | 1122.7 | 0.657
323.15 K, x1 = 0.1985 | 837.87 | 1.3837 | 1179.6 | 0.691
323.15 K, x1 = 0.2973 | 867.27 | 1.3974 | 1224.9 | 0.731
323.15 K, x1 = 0.3963 | 893.76 | 1.4089 | 1266.6 | 0.782
323.15 K, x1 = 0.4948 | 917.3 | 1.4195 | 1304.6 | 0.833
323.15 K, x1 = 0.5932 | 937.79 | 1.4289 | 1337.3 | 0.895
323.15 K, x1 = 0.6912 | 956.8 | 1.4372 | 1368.3 | 0.952
323.15 K, x1 = 0.7897 | 973.77 | 1.4443 | 1396.1 | 1.011
323.15 K, x1 = 0.8875 | 989.78 | 1.4512 | 1422.8 | 1.071
323.15 K, x1 = 1 | 1006.1 | 1.4576 | 1450.2 | 1.146
